Values of other authors in patent publication US7744929B2, “Botanical drug compositions for treatments of liver and immunological disorders” (priority 2003, dated 2010).

Tested on: HCV

NC(=O)c1ncn([C@@H]2O[C@H](CO)[C@@H](O)[C@H]2O)n1 [ribavirin]
increase of the sustained response rate (ribavirin added to interferon): two- to three fold
effect on HCV (ribavirin by itself): little effect
